Results taken from ChEMBL document CHEMBL1821607, “N-Arylalkyl-2-azaadamantanes as cage-expanded polycarbocyclic sigma (σ) receptor ligands” (Bioorg Med Chem Lett, 2011).
pKi: −log10 of the molar value.

Tests used:
[1] = target: Mu-type opioid receptor (Homo sapiens) (UniProt P35372); assay: Inhibition of mu opioid receptor at 10 uM by NIMH PDSP
[2] = target: Delta-type opioid receptor (Homo sapiens) (UniProt P41143); assay: Inhibition of delta opioid receptor at 10 uM by NIMH PDSP
[3] = target: D(1B) dopamine receptor (Homo sapiens) (UniProt P21918); assay: Inhibition of D5 dopamine receptor at 10 uM by NIMH PDSP
[4] = target: 5-hydroxytryptamine receptor 2B (Homo sapiens) (UniProt P41595); assay: Inhibition of 5-HT2B receptor at 10 uM by NIMH PDSP
[5] = target: Histamine H2 receptor (Homo sapiens) (UniProt P25021); assay: Inhibition of H2 receptor at 10 uM by NIMH PDSP
[6] = target: 5-hydroxytryptamine receptor 1E (Homo sapiens) (UniProt P28566); assay: Inhibition of 5-HT1E receptor at 10 uM by NIMH PDSP
[7] = target: D(2) dopamine receptor (Homo sapiens) (UniProt P14416); assay: Inhibition of D2 dopamine receptor at 10 uM by NIMH PDSP
D(1A) dopamine receptor = D(1A) dopamine receptor (Homo sapiens, UniProt P21728); assay: Inhibition of D1 dopamine receptor at 10 uM by NIMH PDSP
[8] = target: Histamine H3 receptor (Homo sapiens) (UniProt Q9Y5N1); assay: Inhibition of H3 receptor at 10 uM by NIMH PDSP
[9] = target: 5-hydroxytryptamine receptor 5A (Homo sapiens) (UniProt P47898); assay: Inhibition of 5-HT5A receptor at 10 uM by NIMH PDSP
[10] = target: T1, Alpha-1B adrenergic receptor (Homo sapiens) (UniProt P35368); assay: Inhibition of alpha-1B adrenergic receptor at 10 uM by NIMH PDSP
T1 sequence (whole entry): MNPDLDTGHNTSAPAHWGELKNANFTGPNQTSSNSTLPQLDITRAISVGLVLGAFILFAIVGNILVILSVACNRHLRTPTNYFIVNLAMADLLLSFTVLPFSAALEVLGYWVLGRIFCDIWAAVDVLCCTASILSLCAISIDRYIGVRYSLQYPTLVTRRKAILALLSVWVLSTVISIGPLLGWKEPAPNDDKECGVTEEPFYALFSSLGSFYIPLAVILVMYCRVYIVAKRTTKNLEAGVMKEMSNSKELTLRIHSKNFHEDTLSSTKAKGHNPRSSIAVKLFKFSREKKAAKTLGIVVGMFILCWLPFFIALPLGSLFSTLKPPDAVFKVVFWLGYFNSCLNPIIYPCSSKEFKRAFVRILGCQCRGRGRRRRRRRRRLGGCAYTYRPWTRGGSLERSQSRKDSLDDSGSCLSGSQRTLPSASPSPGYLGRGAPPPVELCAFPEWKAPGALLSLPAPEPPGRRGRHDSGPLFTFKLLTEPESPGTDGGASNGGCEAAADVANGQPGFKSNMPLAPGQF

[11] = target: 5-hydroxytryptamine receptor 7 (Homo sapiens) (UniProt P34969); assay: Inhibition of 5-HT7 receptor at 10 uM by NIMH PDSP
[12] = target: T2, D(4) dopamine receptor (Homo sapiens) (UniProt P21917); assay: Inhibition of D4 dopamine receptor at 10 uM by NIMH PDSP
T2 sequence (whole entry): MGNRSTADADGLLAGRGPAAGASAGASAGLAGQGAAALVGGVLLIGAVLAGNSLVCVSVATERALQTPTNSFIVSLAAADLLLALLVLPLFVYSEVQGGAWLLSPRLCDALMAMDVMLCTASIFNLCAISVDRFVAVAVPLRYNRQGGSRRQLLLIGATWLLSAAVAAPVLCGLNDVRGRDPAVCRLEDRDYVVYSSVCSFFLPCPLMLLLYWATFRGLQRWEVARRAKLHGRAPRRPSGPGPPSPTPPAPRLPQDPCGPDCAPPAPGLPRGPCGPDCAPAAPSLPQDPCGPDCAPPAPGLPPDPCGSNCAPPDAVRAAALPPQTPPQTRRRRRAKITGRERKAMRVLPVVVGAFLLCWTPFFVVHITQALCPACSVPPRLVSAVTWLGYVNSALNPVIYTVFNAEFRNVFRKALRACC

Histamine H1 receptor = Histamine H1 receptor (Homo sapiens, UniProt P35367); assay: Inhibition of H1 receptor by NIMH PDSP
[13] = target: Beta-2 adrenergic receptor (Homo sapiens) (UniProt P07550); assay: Inhibition of beta-2 adrenergic receptor at 10 uM by NIMH PDSP
[14] = target: 5-hydroxytryptamine receptor 6 (Homo sapiens) (UniProt P50406); assay: Inhibition of 5-HT6 receptor at 10 uM by NIMH PDSP
[15] = Inhibition of GABAA receptor at 10 uM by NIMH PDSP
[16] = target: T3, 5-hydroxytryptamine receptor 1A (Homo sapiens) (UniProt P08908); assay: Inhibition of 5-HT1A receptor at 10 uM by NIMH PDSP
T3 sequence (whole entry): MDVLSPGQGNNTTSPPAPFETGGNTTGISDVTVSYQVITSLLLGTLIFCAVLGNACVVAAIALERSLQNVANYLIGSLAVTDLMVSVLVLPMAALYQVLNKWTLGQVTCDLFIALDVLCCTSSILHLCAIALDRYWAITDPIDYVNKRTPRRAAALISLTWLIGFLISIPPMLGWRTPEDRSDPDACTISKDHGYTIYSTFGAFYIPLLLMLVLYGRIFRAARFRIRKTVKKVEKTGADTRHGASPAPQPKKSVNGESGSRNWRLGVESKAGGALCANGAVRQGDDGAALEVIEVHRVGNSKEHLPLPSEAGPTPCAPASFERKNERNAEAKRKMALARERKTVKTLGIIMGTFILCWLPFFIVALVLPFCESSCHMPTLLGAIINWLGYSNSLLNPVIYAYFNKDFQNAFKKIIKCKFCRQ

[17] = target: 5-hydroxytryptamine receptor 1D (Homo sapiens) (UniProt P28221); assay: Inhibition of 5-HT1D receptor at 10 uM by NIMH PDSP
[18] = target: Sodium-dependent noradrenaline transporter (Homo sapiens, UniProt P23975); assay: Inhibition of NET transporter by NIMH PDSP

Sequence of D(1B) dopamine receptor (Homo sapiens) (P21918 whole entry): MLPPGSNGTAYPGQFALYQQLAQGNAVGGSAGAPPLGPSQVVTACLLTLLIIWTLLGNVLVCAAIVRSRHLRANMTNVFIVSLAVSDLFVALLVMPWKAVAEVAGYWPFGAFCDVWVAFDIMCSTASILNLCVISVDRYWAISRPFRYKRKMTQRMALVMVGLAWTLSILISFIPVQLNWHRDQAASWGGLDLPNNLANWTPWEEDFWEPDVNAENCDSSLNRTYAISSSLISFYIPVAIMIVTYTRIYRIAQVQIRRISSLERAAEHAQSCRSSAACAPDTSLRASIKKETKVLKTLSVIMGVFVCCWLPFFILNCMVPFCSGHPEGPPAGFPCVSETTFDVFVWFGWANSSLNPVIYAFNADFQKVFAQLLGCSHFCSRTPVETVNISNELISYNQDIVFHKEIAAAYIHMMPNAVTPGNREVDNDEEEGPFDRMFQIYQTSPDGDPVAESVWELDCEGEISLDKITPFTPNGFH
Sequence of 5-hydroxytryptamine receptor 2B (Homo sapiens) (P41595 whole entry): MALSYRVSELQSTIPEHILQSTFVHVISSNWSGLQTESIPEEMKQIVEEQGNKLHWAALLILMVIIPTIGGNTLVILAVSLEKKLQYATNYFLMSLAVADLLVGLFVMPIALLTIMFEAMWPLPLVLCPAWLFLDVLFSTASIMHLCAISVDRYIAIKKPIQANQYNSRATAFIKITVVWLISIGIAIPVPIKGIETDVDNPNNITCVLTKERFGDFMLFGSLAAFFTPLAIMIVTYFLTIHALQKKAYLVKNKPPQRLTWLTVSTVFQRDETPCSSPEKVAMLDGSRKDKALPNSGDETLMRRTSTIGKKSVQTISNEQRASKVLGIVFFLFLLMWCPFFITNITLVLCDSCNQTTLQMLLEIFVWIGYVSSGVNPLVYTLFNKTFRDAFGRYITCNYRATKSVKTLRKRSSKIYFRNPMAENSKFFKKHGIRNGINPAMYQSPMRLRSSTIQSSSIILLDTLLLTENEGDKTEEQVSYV
Sequence of Mu-type opioid receptor (Homo sapiens) (P35372 whole entry): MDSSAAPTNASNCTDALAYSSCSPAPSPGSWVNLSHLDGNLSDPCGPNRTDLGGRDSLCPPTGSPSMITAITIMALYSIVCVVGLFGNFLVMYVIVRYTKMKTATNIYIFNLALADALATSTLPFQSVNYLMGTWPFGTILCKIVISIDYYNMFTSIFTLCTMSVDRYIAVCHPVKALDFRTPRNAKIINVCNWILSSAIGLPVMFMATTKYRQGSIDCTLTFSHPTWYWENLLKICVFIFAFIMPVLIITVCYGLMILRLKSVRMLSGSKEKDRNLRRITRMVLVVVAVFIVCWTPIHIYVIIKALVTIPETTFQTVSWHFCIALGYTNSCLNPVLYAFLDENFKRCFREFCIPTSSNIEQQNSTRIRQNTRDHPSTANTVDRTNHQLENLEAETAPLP
Sequence of D(1A) dopamine receptor (P21728 whole entry): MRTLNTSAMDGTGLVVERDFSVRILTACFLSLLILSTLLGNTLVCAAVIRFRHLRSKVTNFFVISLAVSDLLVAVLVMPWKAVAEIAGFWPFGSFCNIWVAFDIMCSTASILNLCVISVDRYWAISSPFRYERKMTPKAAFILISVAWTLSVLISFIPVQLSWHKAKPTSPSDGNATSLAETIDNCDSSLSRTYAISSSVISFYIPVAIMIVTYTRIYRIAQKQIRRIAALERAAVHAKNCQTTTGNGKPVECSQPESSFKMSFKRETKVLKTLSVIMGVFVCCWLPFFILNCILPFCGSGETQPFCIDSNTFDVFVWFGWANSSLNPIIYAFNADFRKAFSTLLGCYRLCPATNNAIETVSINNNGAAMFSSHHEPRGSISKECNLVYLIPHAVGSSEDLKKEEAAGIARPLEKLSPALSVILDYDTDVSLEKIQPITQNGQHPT
Sequence of Delta-type opioid receptor (Homo sapiens) (P41143 whole entry): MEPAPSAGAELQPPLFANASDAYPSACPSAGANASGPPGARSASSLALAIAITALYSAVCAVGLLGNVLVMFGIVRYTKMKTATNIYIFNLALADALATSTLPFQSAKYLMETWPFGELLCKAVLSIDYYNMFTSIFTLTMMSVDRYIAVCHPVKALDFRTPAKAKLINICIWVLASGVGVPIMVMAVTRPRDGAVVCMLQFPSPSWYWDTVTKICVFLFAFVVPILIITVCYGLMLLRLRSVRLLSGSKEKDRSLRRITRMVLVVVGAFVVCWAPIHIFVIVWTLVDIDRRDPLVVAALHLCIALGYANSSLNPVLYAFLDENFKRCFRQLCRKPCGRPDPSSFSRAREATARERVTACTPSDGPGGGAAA
Sequence of Histamine H2 receptor (Homo sapiens) (P25021 whole entry): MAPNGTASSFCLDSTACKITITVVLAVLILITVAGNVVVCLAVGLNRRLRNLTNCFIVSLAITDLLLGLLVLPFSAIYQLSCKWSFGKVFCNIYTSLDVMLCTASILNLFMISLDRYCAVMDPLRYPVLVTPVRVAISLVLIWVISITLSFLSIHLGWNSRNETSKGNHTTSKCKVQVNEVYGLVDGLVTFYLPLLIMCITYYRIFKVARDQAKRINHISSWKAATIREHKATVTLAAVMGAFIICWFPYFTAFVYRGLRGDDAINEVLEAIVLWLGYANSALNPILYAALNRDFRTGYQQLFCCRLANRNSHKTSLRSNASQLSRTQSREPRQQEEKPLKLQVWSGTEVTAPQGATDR
Sequence of 5-hydroxytryptamine receptor 1E (Homo sapiens) (P28566 whole entry): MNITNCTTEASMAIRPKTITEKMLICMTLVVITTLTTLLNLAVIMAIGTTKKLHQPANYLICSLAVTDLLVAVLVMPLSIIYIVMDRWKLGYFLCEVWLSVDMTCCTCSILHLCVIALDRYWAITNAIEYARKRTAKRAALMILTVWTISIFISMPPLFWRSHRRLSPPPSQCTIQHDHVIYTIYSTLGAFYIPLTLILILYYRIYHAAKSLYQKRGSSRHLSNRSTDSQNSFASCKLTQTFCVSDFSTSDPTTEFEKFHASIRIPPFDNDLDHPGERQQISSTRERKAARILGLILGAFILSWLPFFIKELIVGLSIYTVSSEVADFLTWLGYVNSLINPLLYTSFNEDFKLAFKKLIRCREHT
Sequence of Histamine H1 receptor (P35367 whole entry): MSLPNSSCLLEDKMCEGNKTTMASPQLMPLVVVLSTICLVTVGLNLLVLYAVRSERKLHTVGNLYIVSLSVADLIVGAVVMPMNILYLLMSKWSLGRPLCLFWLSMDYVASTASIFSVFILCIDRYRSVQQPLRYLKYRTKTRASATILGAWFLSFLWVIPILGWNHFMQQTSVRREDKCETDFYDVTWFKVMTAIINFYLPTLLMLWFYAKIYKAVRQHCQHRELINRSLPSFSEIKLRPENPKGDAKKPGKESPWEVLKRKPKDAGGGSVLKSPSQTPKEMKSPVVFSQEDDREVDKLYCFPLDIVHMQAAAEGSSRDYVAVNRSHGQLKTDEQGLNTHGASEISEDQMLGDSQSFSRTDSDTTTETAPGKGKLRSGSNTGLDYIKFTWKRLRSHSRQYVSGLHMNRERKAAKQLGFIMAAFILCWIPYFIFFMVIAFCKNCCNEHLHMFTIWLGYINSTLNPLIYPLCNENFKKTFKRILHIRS
Sequence of Beta-2 adrenergic receptor (Homo sapiens) (P07550 whole entry, looked up): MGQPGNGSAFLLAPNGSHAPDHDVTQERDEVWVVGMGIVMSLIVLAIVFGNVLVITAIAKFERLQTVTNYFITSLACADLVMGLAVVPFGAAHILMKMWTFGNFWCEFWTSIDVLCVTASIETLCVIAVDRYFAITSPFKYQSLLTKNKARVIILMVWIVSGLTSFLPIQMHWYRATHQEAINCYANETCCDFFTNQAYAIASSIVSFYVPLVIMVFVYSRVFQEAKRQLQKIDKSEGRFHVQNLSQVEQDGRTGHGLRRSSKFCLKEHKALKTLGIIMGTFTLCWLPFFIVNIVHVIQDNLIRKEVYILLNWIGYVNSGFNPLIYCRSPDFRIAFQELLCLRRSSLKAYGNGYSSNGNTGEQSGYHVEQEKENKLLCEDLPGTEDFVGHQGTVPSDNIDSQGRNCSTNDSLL
Sequence of D(2) dopamine receptor (Homo sapiens) (P14416 whole entry): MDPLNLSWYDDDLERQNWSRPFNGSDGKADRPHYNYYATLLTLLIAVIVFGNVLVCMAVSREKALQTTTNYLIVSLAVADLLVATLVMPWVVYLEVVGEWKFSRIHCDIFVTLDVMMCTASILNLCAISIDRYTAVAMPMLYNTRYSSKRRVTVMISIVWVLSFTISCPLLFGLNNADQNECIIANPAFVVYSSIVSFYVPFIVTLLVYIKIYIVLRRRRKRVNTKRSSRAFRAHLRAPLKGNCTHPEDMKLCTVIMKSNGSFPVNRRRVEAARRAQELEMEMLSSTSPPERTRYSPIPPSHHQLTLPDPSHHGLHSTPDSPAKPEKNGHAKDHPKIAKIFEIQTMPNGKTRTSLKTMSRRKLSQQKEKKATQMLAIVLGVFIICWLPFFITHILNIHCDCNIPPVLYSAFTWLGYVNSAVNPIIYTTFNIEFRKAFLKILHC
Sequence of 5-hydroxytryptamine receptor 5A (Homo sapiens) (P47898 whole entry): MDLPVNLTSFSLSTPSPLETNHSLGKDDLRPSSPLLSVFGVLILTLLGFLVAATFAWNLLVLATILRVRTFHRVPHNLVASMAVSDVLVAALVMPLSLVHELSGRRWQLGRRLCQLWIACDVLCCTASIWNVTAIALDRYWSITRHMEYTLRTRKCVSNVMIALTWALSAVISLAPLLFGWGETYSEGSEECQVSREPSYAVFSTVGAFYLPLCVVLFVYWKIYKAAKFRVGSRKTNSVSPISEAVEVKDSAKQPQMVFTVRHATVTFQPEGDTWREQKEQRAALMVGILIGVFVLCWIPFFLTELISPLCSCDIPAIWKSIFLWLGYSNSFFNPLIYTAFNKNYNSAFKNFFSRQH

SMILES	inhibition [1] [%]	inhibition [2] [%]	inhibition [3] [%]	inhibition [4] [%]	inhibition [5] [%]	inhibition [6] [%]	inhibition [7] [%]	inhibition (D(1A) dopamine receptor) [%]	inhibition [8] [%]	inhibition [9] [%]	inhibition [10] [%]	inhibition [11] [%]	inhibition [12] [%]	pKi (Histamine H1 receptor)	inhibition [13] [%]	inhibition [14] [%]	inhibition [15] [%]	inhibition [16] [%]	inhibition [17] [%]	pKi [18]
OC12CC3CC(CC(C3)N1Cc1ccccc1)C2 (racemic)	< 50	< 50	< 50	< 50	< 50	< 50	< 50	< 50	< 50	< 50	< 50	< 50	< 50	> 5.00	< 50	< 50	< 50	< 50	< 50	
OC12CC3CC(CC(C3)N1Cc1cccc(F)c1)C2 (racemic)	< 50	< 50	< 50	< 50	< 50	< 50	< 50	< 50	< 50	< 50	< 50	< 50	< 50	> 5.00	< 50	< 50	< 50	< 50	< 50	< 5.00
Fc1cccc(CN2C3CC4CC(C3)CC2C4)c1	< 50	< 50	< 50	< 50	< 50	< 50	< 50		< 50	< 50	< 50	< 50	< 50	> 5.00	< 50	< 50	< 50	< 50	< 50	< 5.00
c1ccc(CN2C3CC4CC(C3)CC2C4)cc1	< 50	< 50	< 50	< 50	< 50	< 50	< 50	< 50	< 50	< 50	< 50	< 50	< 50	> 5.00	< 50	< 50	< 50	< 50	< 50	< 5.00
